Eleven compounds from ChEMBL document CHEMBL1201862, “PubChem BioAssay data set” (2004) can be followed below.

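Growth conditions: 96-well plates. Treatment: test compound, 48 hours, 5 concentrations. Analysis: linear interpolation between bracketing concentrations; unreached endpoints set to highest concentration. At the GI50, growth is halved.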 The source made the active and inactive calls. Rule as the data show it: active = GI50 up to about 1.1 µM and inactive = higher.

Test systems include A549; EKVX; HCT-15; IGROV-1; M14; MDA-N; NCI-H226; OVCAR-3; OVCAR-4; OVCAR-8; RPMI-8226; SK-MEL-2; SN12C; SNB-19; SNB-75; SW-620; TK-10; U-251; HCC 2998.
Test in all cases: DTP human tumour cell line panel, 48 h

As to `C[N+](C)(C)CC(=O)N/N=C\c1c(O)ccc2ccccc12`, the GI50 (as a rule, the concentration at which growth is held to half of that of the control) in the assay with A549 is > 100 µM (inactive); with EKVX it was 35.7 µM (inactive); in the assay with HCT-15 it was 27.7 µM; in the assay on IGROV-1 it was 20 µM (inactive); in the assay on M14, 31.5 µM (inactive); with MDA-N, 42.9 µM (inactive). Moreover, the GI50 was 21 µM (inactive) with NCI-H226; 35.9 µM (inactive) in the assay with OVCAR-3; 32.2 µM (inactive) in the assay with OVCAR-4; 26.3 µM (inactive) in the assay on OVCAR-8; 32.1 µM (inactive) in the assay on RPMI-8226; 28.3 µM (inactive) in the assay with SK-MEL-2. For the same compound, the GI50 in the assay on SN12C was 32.2 µM (inactive); in the assay on SNB-19 it was 63.4 µM (inactive); in the assay with SNB-75, 16.8 µM (inactive); with SW-620, 63.5 µM (inactive); in the assay with TK-10, 28.2 µM (inactive); in the assay with U-251 it was 21.4 µM (inactive).

Take `Cc1cc(C)nc(NC(=S)Nc2ccccc2Cl)c1`: the GI50 with A549 is > 100 µM (inactive); with EKVX, > 100 µM (inactive); with HCT-15, > 100 µM; in the assay on IGROV-1, > 100 µM (inactive); in the assay with M14 it was > 100 µM (inactive); in the assay with MDA-N, > 100 µM (inactive). Further, the GI50 in the assay on NCI-H226, in the assay with OVCAR-3, in the assay on OVCAR-4, with OVCAR-8, with RPMI-8226 and in the assay on SK-MEL-2 was > 100 µM (inactive) throughout. Further, the GI50 in the assay on SN12C was > 100 µM (inactive); in the assay on SNB-19 it was > 100 µM (inactive); with SNB-75 it was 73.1 µM (inactive); in the assay with SW-620, > 100 µM (inactive); in the assay on TK-10 it was > 100 µM (inactive); in the assay on U-251 it was > 100 µM (inactive).

Regarding `CC1=CC(=O)/C(=C/NC(=S)NCCc2ccccc2)C(=O)O1`, the GI50 in the assay with A549 was > 100 µM (inactive); in the assay on EKVX, > 100 µM (inactive); in the assay on HCC 2998, > 100 µM (inactive); with HCT-15, > 100 µM; in the assay with IGROV-1 it was > 100 µM (inactive); in the assay with M14 it was > 100 µM (inactive). Moreover, the GI50 with MDA-N, in the assay with NCI-H226, with OVCAR-3, in the assay with OVCAR-4, with OVCAR-8 and with SK-MEL-2 was > 100 µM (inactive) in each case. Further, the GI50 in the assay on SN12C is > 100 µM (inactive); in the assay with SNB-19, > 100 µM (inactive); with SNB-75 it was 75 µM (inactive); in the assay on SW-620, > 100 µM (inactive); in the assay on TK-10, 6.44 µM (inactive); in the assay on U-251, > 100 µM (inactive).

With `Cl.O=C(O)c1cccnc1`, the GI50 in the assay on A549 is > 100 µM (inactive); with EKVX, > 100 µM (inactive); with HCC 2998, > 100 µM (inactive); in the assay on HCT-15 it was > 100 µM; with IGROV-1, > 100 µM (inactive); in the assay with M14, > 100 µM (inactive). Also, the GI50 with MDA-N, in the assay on NCI-H226, in the assay with OVCAR-3, with OVCAR-4, with OVCAR-8 and in the assay on RPMI-8226 was > 100 µM (inactive) throughout. For the same compound, the GI50 with SN12C, in the assay with SNB-19, in the assay on SNB-75, with SW-620, in the assay with TK-10 and in the assay with U-251 was > 100 µM (inactive) in each case.

As for `Cc1cc2c(cc1-c1cc3c(cc1C)C(C(C)C)=C(O)C(=O)/C3=C\Nc1c3ccccc3nc3ccccc13)/C(=C/Nc1c3ccccc3nc3ccccc13)C(=O)C(O)=C2C(C)C`, the GI50 is 2.97 µM (inactive) in the assay on A549; 1.75 µM (inactive) in the assay with EKVX; 3.85 µM in the assay on HCT-15; 2.64 µM (inactive) with IGROV-1; 2.67 µM (inactive) in the assay with M14; 4.06 µM (inactive) in the assay on MDA-N. Also, the GI50 in the assay on NCI-H226 is 1.26 µM (inactive); in the assay on OVCAR-3, 3.47 µM (inactive); in the assay with OVCAR-4, 3.15 µM (inactive); in the assay on OVCAR-8, 2.3 µM (inactive); with RPMI-8226, 4.52 µM (inactive); with SK-MEL-2 it was 5.58 µM (inactive). Besides, the GI50 was 4.47 µM (inactive) in the assay with SN12C; 3.82 µM (inactive) with SNB-19; 2.32 µM (inactive) with SNB-75; 2.9 µM (inactive) with SW-620; 4.02 µM (inactive) in the assay with U-251.

As to `Cc1ccc(Nc2nc(C)c(C(=O)CC(=O)C(=O)Nc3ccc(Cl)cc3)s2)cc1`, the GI50 in the assay on A549 was > 100 µM (inactive); in the assay with EKVX, > 100 µM (inactive); in the assay with HCC 2998, > 100 µM (inactive); with HCT-15 it was > 100 µM; in the assay on IGROV-1, > 100 µM (inactive); in the assay with M14, > 100 µM (inactive). Further, the GI50 with MDA-N, in the assay on OVCAR-3, in the assay with RPMI-8226, with SK-MEL-2, with SN12C and with SNB-19 was > 100 µM (inactive) each time. The GI50 with SNB-75 is 30.9 µM (inactive); in the assay with SW-620, > 100 µM (inactive); in the assay on TK-10, > 100 µM (inactive); with U-251 it was > 100 µM (inactive).

In the case of `O=C(c1ccccc1)c1ccc2[nH]c(-c3c(Cl)c(Cl)c(Cl)c(Cl)c3-c3nnc(-c4ccccc4)o3)nc2c1`, the GI50 in the assay with A549 is 25.8 µM (inactive); in the assay with EKVX it was 54.1 µM (inactive); in the assay with HCT-15 it was 7.01 µM; in the assay on IGROV-1 it was 29.5 µM (inactive); in the assay on M14, 28.2 µM (inactive); in the assay with MDA-N, 3.45 µM (inactive). Further, the GI50 in the assay with NCI-H226 was 22.8 µM (inactive); in the assay with OVCAR-3 it was 13.8 µM (inactive); in the assay on OVCAR-4 it was 20.7 µM (inactive); with OVCAR-8 it was 58.1 µM (inactive); in the assay on RPMI-8226 it was 12.4 µM (inactive); in the assay on SK-MEL-2, 20 µM (inactive). Moreover, the GI50 with SN12C is 22.4 µM (inactive); in the assay on SNB-19 it was 56.9 µM (inactive); in the assay with SNB-75 it was 8.81 µM (inactive); with SW-620 it was 29.7 µM (inactive); with TK-10, 51.1 µM (inactive); in the assay with U-251 it was 31.6 µM (inactive).

`CC(=O)Nc1ccc(C(O)/C(=N/N)c2nc3ccc(Cl)cc3nc2O)cc1` (stereo not drawn): the GI50 with A549 is > 100 µM (inactive); with EKVX, > 100 µM (inactive); in the assay on HCC 2998, > 100 µM (inactive); in the assay with HCT-15, > 100 µM; in the assay with IGROV-1, > 100 µM (inactive); in the assay with M14 it was > 100 µM (inactive). Moreover, the GI50 with MDA-N, in the assay on NCI-H226, in the assay with OVCAR-3, in the assay with OVCAR-4, in the assay with OVCAR-8 and in the assay on SK-MEL-2 was > 100 µM (inactive) in each case. The GI50 in the assay on SN12C, with SNB-19, in the assay on SNB-75, with SW-620, with TK-10 and with U-251 was > 100 µM (inactive) throughout.

Regarding `CC(C)(C)c1cc(C(C)(C)C)c(SS(=O)(=O)O)c(O)c1O`, the GI50 with A549 is 9.33 µM (inactive); with EKVX, 62.1 µM (inactive); in the assay on HCT-15, 48.3 µM; with IGROV-1, 55.7 µM (inactive); in the assay with M14 it was 41.3 µM (inactive); with MDA-N, 30.1 µM (inactive). In addition, the GI50 is 40 µM (inactive) with NCI-H226; 34.1 µM (inactive) with OVCAR-3; 28.9 µM (inactive) in the assay on OVCAR-4; 44.9 µM (inactive) with OVCAR-8; 21.6 µM (inactive) with RPMI-8226; 21.2 µM (inactive) in the assay on SK-MEL-2. Further, the GI50 with SN12C was 67 µM (inactive); with SNB-19, 46.8 µM (inactive); in the assay on SNB-75, 34.5 µM (inactive); in the assay with SW-620 it was 51.4 µM (inactive); in the assay on TK-10 it was > 100 µM (inactive); in the assay with U-251, 27.2 µM (inactive).

Turning to `O=C(C(Cl)=C(N1CCCCC1)N1CCCCC1)C(Cl)Cl`, the GI50 in the assay with A549 was > 100 µM (inactive); with EKVX, > 100 µM (inactive); with HCC 2998, > 100 µM (inactive); with HCT-15 it was > 100 µM; in the assay with IGROV-1 it was > 100 µM (inactive); with M14 it was > 100 µM (inactive). Besides, the GI50 with MDA-N, in the assay with NCI-H226, with OVCAR-3, with OVCAR-4, with OVCAR-8 and in the assay on RPMI-8226 was > 100 µM (inactive) in each case. The GI50 with SN12C, in the assay on SNB-19, in the assay on SW-620 and with TK-10 was > 100 µM (inactive) throughout.

`CN1CCC2(c3ccccc3)CC(=O)/C(=C/c3ccc(Cl)c(Cl)c3)C1C2.[O-][Cl+3]([O-])([O-])O` (stereo not drawn): the GI50 was 3.4 µM (inactive) in the assay with A549; 2.94 µM (inactive) in the assay with EKVX; 2.14 µM with HCT-15; 1.95 µM (inactive) in the assay with IGROV-1; 2.96 µM (inactive) with M14; 4.42 µM (inactive) in the assay with MDA-N. Also, the GI50 was 2.09 µM (inactive) with NCI-H226; 2.9 µM (inactive) in the assay on OVCAR-3; 2.51 µM (inactive) with OVCAR-4; 2.21 µM (inactive) in the assay on OVCAR-8; 2.29 µM (inactive) with RPMI-8226; 3.74 µM (inactive) in the assay on SK-MEL-2. The GI50 in the assay with SN12C is 1.85 µM (inactive); in the assay with SNB-19, 2.3 µM (inactive); with SNB-75 it was 3.41 µM (inactive); in the assay with SW-620, 2.59 µM (inactive); in the assay with TK-10, 3.71 µM (inactive); in the assay on U-251 it was 1.82 µM (inactive).
